The source of these data is US20080064871A1, “Production Method of Nitrogen-Containing Fused Ring Compounds” (Japan Tobacco Inc., priority 2006, published 2008).

In the first series the target is T1, CYP2C9 (Homo sapiens, UniProt P11712).
T1 construct: Human liver microsome (20 mg protein/mL, 5 μL, Xenotech LLC, purchased from Lenexa Kans.); tissue Xenotech LLC; host or cells: human liver microsome
T1 sequence (P11712 whole entry): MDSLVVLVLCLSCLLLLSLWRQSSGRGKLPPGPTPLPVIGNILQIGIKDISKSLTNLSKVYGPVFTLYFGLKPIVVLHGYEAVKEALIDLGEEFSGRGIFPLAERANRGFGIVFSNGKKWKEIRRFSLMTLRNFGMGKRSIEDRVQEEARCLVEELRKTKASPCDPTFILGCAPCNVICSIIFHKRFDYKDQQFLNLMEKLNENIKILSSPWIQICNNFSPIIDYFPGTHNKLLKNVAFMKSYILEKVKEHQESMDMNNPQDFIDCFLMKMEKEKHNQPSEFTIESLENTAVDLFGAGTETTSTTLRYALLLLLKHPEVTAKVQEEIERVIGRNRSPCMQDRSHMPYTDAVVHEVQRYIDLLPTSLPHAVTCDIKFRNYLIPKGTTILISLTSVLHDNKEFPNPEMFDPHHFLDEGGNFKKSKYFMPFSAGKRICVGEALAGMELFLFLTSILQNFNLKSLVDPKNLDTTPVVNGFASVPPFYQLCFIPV
As to the kind of experiment: CYP inhibitory test using human liver microsome. Type of series: in vitro ADME. Conditions: human liver microsomes, pH 7.4, probe diclofenac, model substrate diclofenac, 37° C. 10 min, LC/MS/MS, read-out: CYP2C9 inhibition IC50. As for the experimental part:
Reference Experimental Example 2 Cyp Inhibitory Test Using Human Liver Microsome
Human liver microsome (20 mg protein/mL, 5 μL, Xenotech LLC, purchased from Lenexa Kans.) was suspended in 100 mM potassium phosphate buffer (70 μL, pH 7.4), mixed with a solution (0.5 μL) of the Example compound dissolved in DMSO and preincubated at 37° C. for 5 min. NADPH producing system coenzyme solution (β-nicotinamide adenine dinucleotide phosphate: 5.2 mM, D-glucose-6-phosphate: 13.2 mM, magnesium chloride: 13.2 mM, glucose-6-phosphate dehydrogenase: 1.8 U/mL) 25 μL, and a model substrate (CYP3A4: midazolam 1 mM, CYP2D6: bufuralol 1 mM, CYP2C9: diclofenac 2 mM) 0.5 μL dissolved in DMSO were added to start the reaction. After incubation at 37° C. for 10 min., acetonitrile (200 μL) containing an internal standard substance (propranolol 1 μM) was added and the mixture was centrifuged (room temperature, 3000 rpm, 20 min). The amount of the metabolite produced from each model substrate in the supernatant was measured by high performance liquid chromatography/mass spectrometry (LC/MS/MS) and each CYP enzyme activity was determined. The concentration showing 50% inhibition (IC50) was calculated relative to the enzyme activity without addition of Example compound (DMSO 0.5 μL added) as 100%.
For orientation: Liver microsomes are vesicles of endoplasmic reticulum, rich in cytochrome P450 enzymes.
`O=C(c1cc(Cl)c(O)c(Cl)c1)N1CCCOc2ccccc21` [Example 94]: the IC50 at 10 min amounted to 6 µM.

The target of the next series is T2, human URAT1 (Homo sapiens, UniProt Q96S37).
T2 construct: Human URAT1 full length cDNA was subcloned to expression vector pcDNA3.1; expressed in transfected cells; host or cells: HEK293 cells (pcDNA3.1, geneticin-selected)
T2 sequence (Q96S37 1-553): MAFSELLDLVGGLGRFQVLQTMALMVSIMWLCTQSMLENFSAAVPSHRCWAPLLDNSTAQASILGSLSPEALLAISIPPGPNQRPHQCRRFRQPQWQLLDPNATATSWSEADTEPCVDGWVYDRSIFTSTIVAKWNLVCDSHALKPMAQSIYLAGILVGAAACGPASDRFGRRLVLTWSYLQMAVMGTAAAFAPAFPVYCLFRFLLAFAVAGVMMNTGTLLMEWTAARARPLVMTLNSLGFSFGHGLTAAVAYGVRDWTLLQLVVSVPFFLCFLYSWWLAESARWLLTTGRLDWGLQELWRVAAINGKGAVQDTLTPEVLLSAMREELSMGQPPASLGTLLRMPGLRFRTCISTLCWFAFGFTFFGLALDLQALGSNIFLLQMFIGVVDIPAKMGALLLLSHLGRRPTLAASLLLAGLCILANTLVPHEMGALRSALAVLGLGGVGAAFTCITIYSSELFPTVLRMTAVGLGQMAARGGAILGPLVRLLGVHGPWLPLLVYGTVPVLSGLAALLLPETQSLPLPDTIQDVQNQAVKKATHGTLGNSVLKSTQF
In words: Uric acid transport inhibitory test using human URAT1-expressing cells. Type of series: cell-based. Conditions: human URAT1 expressing HEK293 cells, uptake of 14C-labeled uric acid for 5 min, room temperature; read-out: hURAT1 (IC50, concentration necessary for inhibiting the uric acid transport rate by 50%). An excerpt: Reference Experimental Example 1 Uric Acid Transport Inhibitory Test Using Human Urat1-Expressing Cells
Human URAT1 full length cDNA was subcloned to expression vector pcDNA3.1 and human URAT1 gene was transfected into human embryonic kidney derived cell line (HEK293 cells) by liposome method using Lipofectamine2000. Simultaneously, HEK293 cells transfected with expression vector pcDNA3.1 alone (hereinafter mock cells) were also produced. HEK293 cells expressing human URAT1 gene or mock cells were selected with geneticin resistance as an index. The functional expression of human URAT1 gene was confirmed by a method similar to the following method, using transport of uric acid labeled with ^14C into the cells as an index.
Human URAT1 expressing HEK293 cells or mock cells were cultured in Dulbecco's modified Eagle's MEM medium (high glucose) containing 10% fetal bovine serum, 0.5 mg/mL geneticin sulfate, 100 units/mL penicillin and 100 μg/mL streptomycin under the conditions of 37° C. and 5% CO2 in an incubator. The cells were plated in a 96 well plate (poly-D-Lysine coated) at 1×10^5 cells/well and the following uric acid transport inhibitory test was performed 24 hr later. This test was performed at room temperature.
After the medium was removed by aspiration from each well, the cells were washed once with Hank's Balanced Salt Solution (HBSS) and preincubated with HBSS ([…]) for 5 min. HBSS was aspirated and an assay buffer (wherein NaCl in the above-mentioned HBSS had been substituted with Na-gluconate) containing various concentrations of the Example compound and a radioactive ligand (uric acid labeled with 14C; final concentration […]) was added to each well at […] and an uptake reaction was carried out for 5 min. After the reaction, the cells were washed twice with ice-cold HBSS ([…]), and Microscin ti TM 20 (PerkinElmer) was added at […]. The cells were lysed by stirring and the radioactivity of each well was measured in a liquid scintillation counter (TOP COUNT, Packard).
The uric acid transport rate (%) of the Example compound at each concentration was calculated relative to the radioactivity (difference in radioactivity between human URAT1 expressing HEK293 cells and mock cells without addition of Example compound (DMSO addition)) showing URAT1 specific uric acid transport as 100%, and the concentration (IC50) of the Example compound necessary for inhibiting the uric acid transport rate by 50% was determined. In Table-Table, “+++” means IC50 value of less than 100 nM, “++” means IC50 value of 100 nM to less than 1000 nM, and “+” means IC50 value of 1000 nM to less than 3000 nM.
For `Cc1cc(C)c2c(c1)N(C(=O)c1cc(Cl)c(O)c(Cl)c1)CCO2` [Example 66, (3,5-dichloro-4-hydroxyphenyl)-(6,8-dimethyl-2,3-dihydrobenzo[1,4]oxazin-4-yl)-methanone], the IC50 lay in the range of 0.1 to 1 µM. Still for that read-out and setting: next, `O=C(c1cc(Cl)c(O)c(Cl)c1)N1CCOc2ccc([N+](=O)[O-])cc21` [Example 67, (3,5-dichloro-4-hydroxyphenyl)-(6-nitro-2,3-dihydrobenzo[1,4]oxazin-4-yl)-methanone]: less than 0.1 µM; `Nc1ccc2c(c1)N(C(=O)c1cc(Cl)c(O)c(Cl)c1)CCO2` [Example 68, (6-amino-2,3-dihydrobenzo[1,4]oxazin-4-yl)-(3,5-dichloro-4-hydroxyphenyl)-methanone]: 0.1 to 1 µM; `O=C(c1cc(Br)c(O)c(Br)c1)N1CCOc2ccc([N+](=O)[O-])cc21` [Example 69, (3,5-dibromo-4-hydroxyphenyl)-(6-nitro-2,3-dihydrobenzo[1,4]oxazin-4-yl)-methanone]: less than 0.1 µM. Still for that read-out and setting: then `O=C(c1cc(Cl)c(O)c(Cl)c1)N1CCOc2cc([N+](=O)[O-])ccc21` [Example 70, (3,5-dichloro-4-hydroxyphenyl)-(7-nitro-2,3-dihydrobenzo[1,4]oxazin-4-yl)-methanone], with 0.1 to 1 µM.

Take `Nc1ccc2c(c1)OCCN2C(=O)c1cc(Cl)c(O)c(Cl)c1` [Example 71, (7-amino-2,3-dihydrobenzo[1,4]oxazin-4-yl)-(3,5-dichloro-4-hydroxyphenyl)-methanone]: the IC50 is 1 to 3 µM. Same read-out and setting: then `CC(=O)N1CCN(C(=O)c2cc(Cl)c(O)c(Cl)c2)c2ccccc21` [Example 73, 1-[4-(3,5-dichloro-4-hydroxybenzoyl)-3,4-dihydro-2H-quinoxalin-1-yl]-ethanone], with 0.1 to 1 µM. On the same count and under the same terms, then `CN1CCN(C(=O)c2cc(Cl)c(O)c(Cl)c2)c2ccccc21` [Example 74, (3,5-dichloro-4-hydroxyphenyl)-(4-methyl-3,4-dihydro-2H-quinoxalin-1-yl)-methanone], with 0.1 to 1 µM; and `O=C(c1ccc(O)c([N+](=O)[O-])c1)N1CCOc2ccccc21` [Example 75, (2,3-dihydrobenzo[1,4]oxazin-4-yl)-(4-hydroxy-3-nitrophenyl)-methanone], with 0.1 to 1 µM. As to `O=C(c1cc(Cl)c(O)c(Cl)c1)N1CCc2ccccc21` [Example 77, (3,5-dichloro-4-hydroxyphenyl)-(2,3-dihydroindol-1-yl)-methanone], the IC50 lay within 0.1 to 1 µM. Consider `Nc1ccc2c(c1)CCN2C(=O)c1cc(Cl)c(O)c(Cl)c1` [Example 78, (5-amino-2,3-dihydroindol-1-yl)-(3,5-dichloro-4-hydroxyphenyl)-methanone], for which the IC50 was 0.1 to 1 µM. Still for that read-out and setting: then `O=C(c1cc(Br)c(O)c(Br)c1)N1CCOc2ccc(F)cc21` [Example 79, (3,5-dibromo-4-hydroxyphenyl)-(6-fluoro-2,3-dihydrobenzo[1,4]oxazin-4-yl)-methanone], with less than 0.1 µM. Still for that read-out and setting: then `O=C(c1cc(Br)c(O)c(Br)c1)N1CCOc2ccc3ccccc3c21` [Example 80, (3,5-dibromo-4-hydroxyphenyl)-(2,3-dihydronaphtho[2,1-b][1,4]oxazin-1-yl)-methanone], with less than 0.1 µM; and `Cc1ccc2c(c1)N(C(=O)c1cc(Br)c(O)c(Br)c1)CCO2` [Example 81, (3,5-dibromo-4-hydroxyphenyl)-(6-methyl-2,3-dihydrobenzo[1,4]oxazin-4-yl)-methanone], with less than 0.1 µM. On the same count and under the same terms, next, `O=C(c1cc(Br)c(O)c(Br)c1)N1CCOc2ccc(Cl)cc21` [Example 82, (6-chloro-2,3-dihydrobenzo[1,4]oxazin-4-yl)-(3,5-dibromo-4-hydroxyphenyl)-methanone]: less than 0.1 µM; `CS(=O)(=O)N1CCN(C(=O)c2cc(Cl)c(O)c(Cl)c2)c2ccccc21` [Example 83, (3,5-dichloro-4-hydroxyphenyl)-(4-methanesulfonyl-3,4-dihydro-2H-quinoxalin-1-yl)-methanone]: 0.1 to 1 µM. As to `CCS(=O)(=O)c1ccc2c(c1)N(C(=O)c1cc(Cl)c(O)c(Cl)c1)CCO2` [Example 84, (3,5-dichloro-4-hydroxyphenyl)-(6-ethanesulfonyl-2,3-dihydrobenzo[1,4]oxazin-4-yl)-methanone], the IC50 lay within 1 to 3 µM. For the compound `O=C(c1cc(Cl)c(O)c(Cl)c1)N1CCOc2ccc(C(F)(F)F)cc21` [Example 85, (3,5-dichloro-4-hydroxyphenyl)-(6-trifluoromethyl-2,3-dihydrobenzo[1,4]oxazin-4-yl)-methanone], the IC50 was less than 0.1 µM. On the same count and under the same terms, then `COc1c(Cl)cc(C(=O)N2CCOc3ccccc32)cc1Cl` [Example 86, (3,5-dichloro-4-methoxyphenyl)-(2,3-dihydrobenzo[1,4]oxazin-4-yl)-methanone], with 1 to 3 µM. On the same count and under the same terms, next, `CC(=O)Oc1c(Cl)cc(C(=O)N2CCOc3ccccc32)cc1Cl` [Example 87, 2,6-dichloro-4-(2,3-dihydrobenzo[1,4]oxazine-4-carbonyl)-phenyl acetate]: 0.1 to 1 µM; `O=C(c1cc(Cl)c(O)c(Cl)c1)N1CCOc2cccc(O)c21` [Example 89, (3,5-dichloro-4-hydroxyphenyl)-(5-hydroxy-2,3-dihydrobenzo[1,4]oxazin-4-yl)-methanone]: less than 0.1 µM. The same measure, in the same setting: next, `O=C(c1cc(Cl)c(O)c(Cl)c1)N1CCOc2c(O)cccc21` [Example 90, (3,5-dichloro-4-hydroxyphenyl)-(8-hydroxy-2,3-dihydrobenzo[1,4]oxazin-4-yl)-methanone]: 0.1 to 1 µM; `CCOC(=O)COc1c(Cl)cc(C(=O)N2CCOc3ccccc32)cc1Cl` [Example 91, ethyl [2,6-dichloro-4-(2,3-dihydrobenzo[1,4]oxazine-4-carbonyl)phenoxy]acetate]: 1 to 3 µM; `O=C(c1cc(Cl)c(O)c(Cl)c1)N1CCCOc2ccccc21` [Example 94]: 0.1 to 1 µM. Take `O=C(c1cc(Cl)c(O)c(Cl)c1)N1CCCOc2ccccc21` [Example 95, (3,5-dichloro-4-hydroxyphenyl)-(7,8-dihydro-6H-5-oxa-9-azabenzocyclohepten-9-yl)-methanone]: the IC50 fell in the range of 0.1 to 1 µM.
